SMILES strings stand for the structures.

The target in the first data set is Receptor-interacting serine/threonine-protein kinase 2 (Homo sapiens, UniProt O43353). The data set is described as follows: Inhibition of human RIPK2 incubated for 120 mins in presence of [gamma33P]ATP by scintillation counting based radiometry assay.
Chain of Receptor-interacting serine/threonine-protein kinase 2 (O43353 whole entry): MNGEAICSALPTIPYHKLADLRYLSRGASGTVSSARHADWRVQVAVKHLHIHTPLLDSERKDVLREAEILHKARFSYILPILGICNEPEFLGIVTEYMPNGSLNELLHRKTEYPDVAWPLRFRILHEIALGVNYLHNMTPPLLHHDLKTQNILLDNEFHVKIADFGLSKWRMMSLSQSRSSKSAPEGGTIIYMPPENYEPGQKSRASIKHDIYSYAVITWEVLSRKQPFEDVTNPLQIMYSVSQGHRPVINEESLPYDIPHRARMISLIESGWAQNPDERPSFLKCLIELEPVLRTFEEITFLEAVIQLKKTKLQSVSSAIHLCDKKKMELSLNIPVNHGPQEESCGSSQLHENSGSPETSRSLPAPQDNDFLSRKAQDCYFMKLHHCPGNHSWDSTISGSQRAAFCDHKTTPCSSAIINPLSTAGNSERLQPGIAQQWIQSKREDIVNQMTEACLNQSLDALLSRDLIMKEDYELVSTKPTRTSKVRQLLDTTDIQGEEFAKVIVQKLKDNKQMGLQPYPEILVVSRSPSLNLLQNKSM
Broadly, the IC50 is the point on the concentration scale where inhibition reaches its midpoint. Turning to `COc1ccc(-c2cn([C@H]3CC[C@@H](NC(=O)C(C)(C)C)CC3)c3ncnc(N)c23)cc1`, the 50% inhibitory concentration (IC50) worked out at 15.6 nM.
Consider `Cc1ccc(-c2cn([C@H]3CC[C@@H](N)CC3)c3ncnc(N)c23)cc1`, for which the IC50 came to 2.4 nM.
With `Cc1cccc(-c2cn([C@H]3CC[C@@H](N)CC3)c3ncnc(N)c23)c1`, the half-maximal inhibitory concentration (IC50) was found to be 10.7 nM.
On the same count and under the same terms, then `COc1ccc(-c2cn([C@H]3CC[C@@H](NC(=O)c4cc(OC)c(OC)c(OC)c4)CC3)c3ncnc(N)c23)cc1`, with 3.9 nM.

Another data set deals with T1, Receptor-interacting serine/threonine-protein kinase 1 (Homo sapiens) (UniProt Q13546).
T1 sequence (whole entry): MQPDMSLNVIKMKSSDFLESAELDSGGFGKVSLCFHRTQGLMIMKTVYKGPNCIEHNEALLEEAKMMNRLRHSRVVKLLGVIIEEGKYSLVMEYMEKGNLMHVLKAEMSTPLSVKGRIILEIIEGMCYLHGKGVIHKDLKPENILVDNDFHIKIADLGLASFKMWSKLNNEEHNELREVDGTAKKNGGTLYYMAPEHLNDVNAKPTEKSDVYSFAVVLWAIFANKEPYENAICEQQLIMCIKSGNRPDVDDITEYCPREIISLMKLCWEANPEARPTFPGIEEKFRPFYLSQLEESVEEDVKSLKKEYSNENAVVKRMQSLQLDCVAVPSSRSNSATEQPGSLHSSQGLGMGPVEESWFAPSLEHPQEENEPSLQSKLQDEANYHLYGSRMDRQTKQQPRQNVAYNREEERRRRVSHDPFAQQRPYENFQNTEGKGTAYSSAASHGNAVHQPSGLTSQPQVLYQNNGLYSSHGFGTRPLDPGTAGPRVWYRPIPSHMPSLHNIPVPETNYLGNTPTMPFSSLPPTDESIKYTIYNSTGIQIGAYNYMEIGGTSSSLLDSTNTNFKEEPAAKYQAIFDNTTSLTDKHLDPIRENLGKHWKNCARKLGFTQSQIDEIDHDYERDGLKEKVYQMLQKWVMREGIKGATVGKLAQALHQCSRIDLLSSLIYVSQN
The data set is described as follows: Inhibition of human RIPK1 assessed as active kinase incubated for 120 mins in presence of [gamma33P]ATP at 1000 nM by scintillation counting based radiometry assay relative to control. On the set-up: scale not given: the % may be the effect or the level left.
For `Nc1ncnc2c1c(-c1ccoc1)cn2[C@H]1CC[C@@H](N)CC1`, the Activity was 101%.
Same read-out and setting: then `Nc1cccc(-c2cn([C@H]3CC[C@@H](N)CC3)c3ncnc(N)c23)c1`, with 98%; and `CCc1ccc(-c2cn([C@H]3CC[C@@H](N)CC3)c3ncnc(N)c23)cc1`, with 97%; and `CC(C)c1ccc(-c2cn([C@H]3CC[C@@H](N)CC3)c3ncnc(N)c23)cc1`, with 95%.
For `Nc1ccc(-c2cn([C@H]3CC[C@@H](N)CC3)c3ncnc(N)c23)cc1`, the Activity was 100%.
Still for that read-out and setting: the same measure for `Nc1ncnc2c1c(-c1ccsc1)cn2[C@H]1CC[C@@H](N)CC1`: 99%.
As for `CC(C)(C)c1ccc(-c2cn([C@H]3CC[C@@H](N)CC3)c3ncnc(N)c23)cc1`, the Activity turned out to be 93%.
Still for that read-out and setting: the same measure for `COc1ccc(-c2cn([C@H]3CC[C@@H](NC(=O)C(C)(C)C)CC3)c3ncnc(N)c23)cc1`: 77%; for `Cc1ccc(-c2cn([C@H]3CC[C@@H](N)CC3)c3ncnc(N)c23)cc1`: 114%; for `Cc1cccc(-c2cn([C@H]3CC[C@@H](N)CC3)c3ncnc(N)c23)c1`: 105%.
Still for that read-out and setting: the same measure for `COc1ccc(-c2cn([C@H]3CC[C@@H](NC(=O)c4cc(OC)c(OC)c(OC)c4)CC3)c3ncnc(N)c23)cc1`: 87%; for `CC(C)Cc1ccc(-c2cn([C@H]3CC[C@@H](N)CC3)c3ncnc(N)c23)cc1`: 117%.
Regarding `CCOc1ccc(-c2cn([C@H]3CC[C@@H](N)CC3)c3ncnc(N)c23)cc1`, the Activity came out at 98%.
Same read-out and setting: the same measure for `Nc1ccccc1-c1cn([C@H]2CC[C@@H](N)CC2)c2ncnc(N)c12`: 112%.
Regarding `Nc1ncnc2c1c(-c1cc(F)cc(F)c1)cn2[C@H]1CC[C@@H](N)CC1`, the Activity amounted to 114%.

Tested on in the next data set: not listed separately
Kind of data set: Inhibition of MDP-stimulated TNFalpha production in mouse RAW264.7 cells at 100 nM incubated for 22 hrs by ELISA relative to control. The format is functional. In general terms: ELISA stands for enzyme-linked immunosorbent assay.
In general, inhibition refers to the drop in the measured response relative to a control, in per cent. Take `Nc1ncnc2c1c(-c1ccoc1)cn2[C@H]1CC[C@@H](N)CC1`: the inhibition at 0.1 µM stood at 13%.
Still for that read-out and setting: the same measure for `Nc1cccc(-c2cn([C@H]3CC[C@@H](N)CC3)c3ncnc(N)c23)c1`: 16%; for `CCc1ccc(-c2cn([C@H]3CC[C@@H](N)CC3)c3ncnc(N)c23)cc1`: 46%.
With `CC(C)c1ccc(-c2cn([C@H]3CC[C@@H](N)CC3)c3ncnc(N)c23)cc1`, the inhibition at 0.1 µM was -52%.
Still for that read-out and setting: the same measure for `Nc1ccc(-c2cn([C@H]3CC[C@@H](N)CC3)c3ncnc(N)c23)cc1`: 22%.
With `Nc1ncnc2c1c(-c1ccsc1)cn2[C@H]1CC[C@@H](N)CC1`, the inhibition at 0.1 µM is 16%.
Still for that read-out and setting: then `CC(C)(C)c1ccc(-c2cn([C@H]3CC[C@@H](N)CC3)c3ncnc(N)c23)cc1`, with -40%.
Still for that read-out and setting: then `COc1ccc(-c2cn([C@H]3CC[C@@H](NC(=O)C(C)(C)C)CC3)c3ncnc(N)c23)cc1`, with 45%.
On the same count and under the same terms, then `Cc1ccc(-c2cn([C@H]3CC[C@@H](N)CC3)c3ncnc(N)c23)cc1`, with 99%; and `Cc1cccc(-c2cn([C@H]3CC[C@@H](N)CC3)c3ncnc(N)c23)c1`, with 83%.
For `COc1ccc(-c2cn([C@H]3CC[C@@H](NC(=O)c4cc(OC)c(OC)c(OC)c4)CC3)c3ncnc(N)c23)cc1`, the inhibition at 0.1 µM came to 49%.
Take `CC(C)Cc1ccc(-c2cn([C@H]3CC[C@@H](N)CC3)c3ncnc(N)c23)cc1`: the inhibition at 0.1 µM was -23%.
Still for that read-out and setting: the same measure for `CCOc1ccc(-c2cn([C@H]3CC[C@@H](N)CC3)c3ncnc(N)c23)cc1`: -15%; for `Nc1ccccc1-c1cn([C@H]2CC[C@@H](N)CC2)c2ncnc(N)c12`: -35%; for `Nc1ncnc2c1c(-c1cc(F)cc(F)c1)cn2[C@H]1CC[C@@H](N)CC1`: 56%.

Tested on in the next data set: not listed separately
Kind of data set: Metabolic stability in human liver microsomes assessed as half life at 1 uM by LC/MS/MS analysis. It is filed as ADME, Microsome. A general note: Liver microsomes are vesicles of endoplasmic reticulum, rich in cytochrome P450 enzymes.
Usually half-life stands for the time in which the quantity being followed falls by half. On to `Cc1ccc(-c2cn([C@H]3CC[C@@H](N)CC3)c3ncnc(N)c23)cc1Cl`, for which the half-life at 1 µM worked out at 28.2 min.
For the compound `Cc1ccc(-c2cn([C@H]3CC[C@@H](N)CC3)c3ncnc(N)c23)cc1`, the half-life at 1 µM came to 27.4 min.
Still for that read-out and setting: then `Cc1cccc(-c2cn([C@H]3CC[C@@H](N)CC3)c3ncnc(N)c23)c1`, with 23.7 min; and `Cc1ccc(-c2cn([C@H]3CC[C@@H](N)CC3)c3ncnc(N)c23)cc1C`, with 22.4 min; and `Cc1ccc(-c2cn([C@H]3CC[C@@H](N)CC3)c3ncnc(N)c23)cc1F`, with 26.9 min.

The target in another data set is Receptor-type tyrosine-protein kinase FLT3 (Homo sapiens) (UniProt P36888). Kind of data set: Inhibition of human Flt3 using EAIYAAPFAKKK peptide substrate assessed as active kinase incubated for 40 mins in presence of [gamma33P]ATP at 1000 nM by scintillation counting based radiometry assay relative to control. Details: scale not given: the % may be the effect or the level left.
Chain of Receptor-type tyrosine-protein kinase FLT3 (Homo sapiens) (P36888 whole entry): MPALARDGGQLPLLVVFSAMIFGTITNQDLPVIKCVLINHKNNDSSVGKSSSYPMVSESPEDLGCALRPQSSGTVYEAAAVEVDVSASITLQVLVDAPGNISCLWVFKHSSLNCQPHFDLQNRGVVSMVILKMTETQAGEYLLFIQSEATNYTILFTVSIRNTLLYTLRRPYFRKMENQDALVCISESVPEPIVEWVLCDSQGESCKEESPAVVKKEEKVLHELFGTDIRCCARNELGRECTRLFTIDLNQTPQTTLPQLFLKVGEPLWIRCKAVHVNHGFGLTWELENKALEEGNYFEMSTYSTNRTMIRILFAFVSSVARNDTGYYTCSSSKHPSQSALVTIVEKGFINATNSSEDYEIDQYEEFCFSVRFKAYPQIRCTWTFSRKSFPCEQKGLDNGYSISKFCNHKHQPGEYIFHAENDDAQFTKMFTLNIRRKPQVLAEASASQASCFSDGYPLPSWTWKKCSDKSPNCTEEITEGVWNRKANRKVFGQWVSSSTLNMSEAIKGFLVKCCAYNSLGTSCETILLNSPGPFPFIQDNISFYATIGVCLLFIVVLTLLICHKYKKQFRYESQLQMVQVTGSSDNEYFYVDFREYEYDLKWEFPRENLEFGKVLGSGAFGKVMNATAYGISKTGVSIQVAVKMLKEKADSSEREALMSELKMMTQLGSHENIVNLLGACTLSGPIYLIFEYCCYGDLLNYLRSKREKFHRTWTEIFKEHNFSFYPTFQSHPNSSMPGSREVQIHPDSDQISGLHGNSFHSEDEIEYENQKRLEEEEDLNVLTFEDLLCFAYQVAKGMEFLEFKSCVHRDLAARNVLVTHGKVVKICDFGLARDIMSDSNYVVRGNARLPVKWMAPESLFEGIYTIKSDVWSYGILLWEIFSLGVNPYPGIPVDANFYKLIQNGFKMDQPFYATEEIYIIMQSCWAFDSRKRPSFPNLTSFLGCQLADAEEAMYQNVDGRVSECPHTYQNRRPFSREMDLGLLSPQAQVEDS
Consider `COc1ccc(-c2cn([C@H]3CC[C@@H](NC(=O)C(C)(C)C)CC3)c3ncnc(N)c23)cc1`, for which the Activity worked out at 47%.
Turning to `COc1ccc(-c2cn([C@H]3CC[C@@H](NC(=O)c4cc(OC)c(OC)c(OC)c4)CC3)c3ncnc(N)c23)cc1`, the Activity turned out to be 85%.

Tested on in the next data set: not listed separately
Kind of data set: Toxicity in rat H9c2 cells assessed as inhibitory rate at 10 uM relative to control. It is filed as cell-based.
On to `Cc1ccc(-c2cn([C@H]3CC[C@@H](N)CC3)c3ncnc(N)c23)cc1`, for which the inhibition at 10 µM was 28%.
Turning to `Cc1cccc(-c2cn([C@H]3CC[C@@H](N)CC3)c3ncnc(N)c23)c1`, the inhibition at 10 µM turned out to be 18%.

The record behind these values is ChEMBL document CHEMBL5131564, “Discovery of Potent and Selective Receptor-Interacting Serine/Threonine Protein Kinase 2 (RIPK2) Inhibitors for the Treatment of Inflammatory Bowel Diseases (IBDs)” (J Med Chem, 2022).
